A value given as a limit tells only on which side of the number the result lay.

Test [1] concerns the target FcγRI receptor-mediated degranulation. Briefly: FcγRI-mediated degranulation (activation with anti-human IgG Fab fragment). Particulars: cells not primed with IgE, activated with rabbit anti-human IgG Fab fragment.
Test [2] relates to cultured human mast cells (CHMC). Put plainly: CHMC low cell density IgE activation: tryptase and LTC4 assays. In kind it is cell-based. Particulars: Homo sapiens, Mast cell, Low Density CHMC, anti-IgE activation. The essentials:
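Cultured human mast cells at low density (1000-1500 per well) rested 1 h at 37° C, then stimulated with anti-IgE for 30 min at 37° C. Supernatant tryptase measured with fluorogenic substrate (30 min, room temperature); LTC4 quantified by ELISA on diluted supernatant.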

Test [3] relates to B-cell line BJAB. Put plainly: BJAB (B-cell) toxicity, light scatter. In kind it is cell-based. Particulars: Homo sapiens; BJAB B-cells, flow cytometric light scatter; read-out: Toxicity BJAB Light Scat. As for the experimental part: The B-cell line BJAB was cultured in log phase in RPMI1640+10% heat-inactivated fetal bovine serum, lx L-glutamine, lx penicillin, lx […] and 1× beta-mercaptoethanol at 37° C., 5% CO2. First, BJABs were harvested, spun and resuspended in culture medium to a concentration of 7.7×10^5 cells/mL. 65 uL cells were mixed with 65 uL compound, in duplicate and in the presence of 0.1% DMSO in a V-bottomed 96-well tissue culture plate. Cells were incubated with compound at various dilutions at 37° C., 5% CO2. Toxicity was assessed by flow cytometric analysis of cellular light scatter.

Test [4] deals with Jurkat cells. Briefly: Jurkat (T-cell) toxicity, light scatter. In kind it is cell-based. The note with it: Homo sapiens, 18-24 hr, flow cytometric light scatter, read-out: Toxicity Jurkat Light Scat. As for the experimental part:
Dilute Jurkat cells to 2×10^5 cells/ml in complete RPMI (10% heat-inactivated fetal bovine serum) media and incubate at 37° C., 5% CO2 for 18 hours. Add 65 ul cells at 7.7×10^5 cells/ml to a 96-well V-bottom plate (TC-treated, Costar) containing 65 ul 2× compound (final vehicle concentration is 0.5% DMSO, 1.5% MeOH). Mix, incubate plates for 18-24 hr at 37° C., 5% CO2. Toxicity was assessed by flow cytometric analysis of cellular light scatter
In general terms: Flow cytometry measures light scatter and fluorescence of single cells or particles in a stream.

The test system of test [5] is cultured human mast cells (CHMC). Put plainly: CHMC low cell density ionomycin activation: tryptase assay. Particulars: Homo sapiens, Mast cell, Low Density CHMC, ionomycin activation. In kind it is cell-based.
For test [6], the system named is basophils in whole human peripheral blood. Briefly: Basophil ionomycin activation: histamine release assay. In kind it is cell-based. Particulars: Homo sapiens. As to the method:
Assays for ionomycin-induced basophil cell degranulation were carried out as described for the Basophil IgE or Dustmite Activation Assay (Section 6.4.6, supra), with the exception that following incubation with compound, cells were stimulated with 20 μl of 2 μM ionomycin.

Test [7] concerns ionophore-induced degranulation of mast and/or basophil cells. Briefly: Ionophore (ionomycin or A23187)-induced degranulation counter screen. In kind it is cell-based. The note with it: Mus musculus; high density BMMC, ionomycin activation, hexosaminidase release; read-out: BMMC Ionomycin Hexos. IC50. An excerpt: In addition to the FcεRI or FcγRI degranulation pathways discussed above, degranulation of mast and/or basophil cells can be induced by other agents. For example, ionomycin, a calcium ionophore that bypasses the early FcεRI or FcγRI signal transduction machinery of the cell, directly induces a calcium flux that triggers degranulation. Referring again to FIG. 2, activated PLCγ initiates pathways that lead to, among other things, calcium ion mobilization and subsequent degranulation. As illustrated, this Ca^2+ mobilization is triggered late in the FcεRI signal transduction pathway. […] Other ionophores that induce degranulation in this manner include A23187. The ability of granulation-inducing ionophores such as ionomycin to bypass the early stages of the FcεRI and/or FcγRI signaling cascades may be used as a counter screen to identify active compounds of the invention that specifically exert their degranulation-inhibitory activity by blocking or inhibiting the early FcεRI or FcγRI signaling cascades, as discussed above.
Assays suitable for determining the IC50 of ionophore-induced degranulation include any of the previously-described degranulation assays, with the modification that the cells are stimulated or activated with a degranulation-inducing calcium ionophore such as ionomycin or A23187 (A.G. Scientific, San Diego, Calif.) instead of anti-IgE antibodies or an IgE-specific allergen. Specific assays for assessing the ability of a particular 2,4-pyrimidinediamine compound of the invention to inhibit ionophore-induced degranulation are provided in the Examples section.

The subject of test [8] is bone marrow derived mast cells (BMMC). Briefly: BMMC high cell density IgE activation: degranulation (hexosiminidase, histamine), leukotriene (LTC4) and cytokine (TNFalpha, IL-6) assays. The format is cell-based. Particulars: Mus musculus, anti-IgE activation, hexosaminidase release, read-out: BMMC anti-IgE hexos IC50.
Test [9] deals with basophils in whole human peripheral blood. Put plainly: Basophil IgE activation: histamine release assay. In kind it is cell-based. Particulars: Homo sapiens, anti-IgE activation. As to the method: The basophil activation assay was carried out using whole human peripheral blood from donors allergic to dust mites with the majority of the red blood cells removed by dextran sedimentation. Human peripheral blood was mixed 1:1 with 3% dextran T500 and RBCs were allowed to settle for 20-25 min. The upper fraction was diluted with 3 volumes of D-PBS and cells were spun down for 10 min at 1500 rpm, RT. Supernatant was aspirated and cells were washed in an equal volume MT-buffer. Finally, cells were resuspended in MT-buffer containing 0.5% DMSO in the original blood volume. 80 uL cells were mixed with 20 uL compound in the presence of 0.5% DMSO, in triplicate, in a V-bottom 96-well tissue culture plate. A dose range of 8 compound concentrations was tested resulting in a 10-point dose response curve including maximum (stimulated) and minimum (unstimulated) response. […] The cells were stimulated for 30 minutes at 37° C., 5% CO2. The plate was spun for 10 min at 1500 rpm at room temperature and 80 uL the supernatant was harvested for histamine content analysis using the histamine ELISA kit supplied by Immunotech. The ELISA was performed according to supplier's instructions.

Where [10] appears, read: LTC4 readout, read-out: CHMC anti-IgE LTC4.
The mark [11] stands for this setting: tryptase readout, read-out: CHMC anti-IgE Tryptase.
The mark [12] stands for this setting: tryptase readout, read-out: CHMC Ionomycin Tryptase.
Where [13] appears, read: hexosaminidase readout, read-out: CHMC anti-IgE Hexos.
Where [14] appears, read: hexosaminidase readout, read-out: CHMC Ionomycin Hexos.

On to `CNC(=O)COc1cccc(Nc2ncc(F)c(Nc3ccc(OC(F)(F)F)c(Cl)c3)n2)c1` [Compound R920410, N4-(3-Chloro-4-trifluoromethoxyphenyl)-5-fluoro-N2-[3-(N-methylamino)carbonylmethyleneoxyphenyl]-2,4-pyrimidinediamine], for which the “inhibition of FcγRI-mediated degranulation” value (from here on “inhibition”) in test [1] is “inhibit FcγRI-mediated degranulation”.
On the same count and under the same terms, as for `CNC(=O)COc1cccc(Nc2ncc(F)c(Nc3ccc4c(c3)NC(=O)C(F)(F)O4)n2)c1` [Compound R921303, N4-[(2,2-Difluoro-4H-benzo[1,4]oxazin-3-one)-6-yl]-5-fluoro-N2-[3-(methylaminocarbonylmethyleneoxy)phenyl]-2,4-pyrimidinediamine], the entry is “inhibit FcγRI-mediated degranulation”.
Turning to `Oc1cccc(Nc2ncc(Br)c(Nc3cccc(O)c3)n2)c1` [Compound R925778, N2,N4-Bis(3-hydroxyphenyl)-5-bromo-2,4-pyrimidinediamine], the IC50 in [2] (setting [10]) was 180 nM; in test [2] (setting [11]), 225 nM; in test [3] it was greater than 10000 nM; in test [4], greater than 10000 nM; in test [5] (setting [12]), greater than 10000 nM.
`Oc1cccc(Nc2nc(Nc3ccc4c(c3)OCCO4)ncc2Br)c1` [Compound R925797, 5-Bromo-N2-(3,4-ethylenedioxyphenyl)-N4-(3-hydroxyphenyl)-2,4-pyrimidinediamine]: the IC50 in test [2] (setting [10]) is 280 nM; in test [2] (setting [11]), 850 nM; in [3] it was greater than 10000 nM; in test [4], greater than 10000 nM; in [5] (setting [12]), greater than 10000 nM.
On to `CCOc1ccc(Nc2nc(Nc3ccc(OC)c(OC)c3)ncc2F)cc1` [Compound R926108, N2-(3,4-Dimethoxyphenyl)-N4-(4-ethoxyphenyl)-5-fluoro-2,4-pyrimidinediamine], for which the IC50 in test [6] is greater than 10000 nM; in test [2] (setting [10]), 760 nM; in test [2] (setting [13]) it was 787 nM; in test [7], greater than 10000 nM; in test [3], greater than 10000 nM; in [8], 900 nM. In addition, the IC50 in [9] is 950 nM; in [4], greater than 10000 nM; in [5] (setting [14]) it was 6400 nM.
With `COc1ccc(Nc2ncc(F)c(Nc3ccc(OC)c(OC)c3)n2)cc1OC` [Compound R926110, N2,N4-Bis(3,4-dimethoxyphenyl)-5-fluoro-2,4-pyrimidinediamine], the IC50 in test [6] was greater than 10000 nM; in test [2] (setting [10]), 1420 nM; in test [2] (setting [13]), 1200 nM; in test [2] (setting [11]) it was 1070 nM; in test [7], 4500 nM; in [3], greater than 10000 nM. Further, the IC50 in test [8] is 1000 nM; in [9], 300 nM; in [4], greater than 10000 nM; in [5] (setting [14]) it was greater than 10000 nM; in [5] (setting [12]), greater than 10000 nM.
Consider `CCOc1ccc(Nc2nc(Nc3cccc(O)c3)ncc2F)cc1` [Compound R926146, N4-(4-Ethoxyphenyl)-N2-(3-hydroxyphenyl)-5-fluoro-2,4-pyrimidinediamine], for which the IC50 in [2] (setting [10]) is 1590 nM; in test [2] (setting [13]), 761 nM; in test [7], 5000 nM; in test [3], greater than 10000 nM; in test [8], 1350 nM; in [4], greater than 10000 nM. Further, the IC50 in test [5] (setting [14]) came out at 6700 nM.
As for `Oc1cccc(Nc2ncc(F)c(Nc3ccc4c(c3)OCCO4)n2)c1` [Compound R926210, N4-(3,4-Ethylenedioxyphenyl)-5-fluoro-N2-(3-hydroxyphenyl)-2,4-pyrimidinediamine], the IC50 in test [6] was greater than 10000 nM; in [2] (setting [10]), 800 nM; in [7] it was greater than 10000 nM; in [3], greater than 10000 nM; in [8], 600 nM; in [9], 370 nM. Moreover, in test [4], the IC50 was greater than 10000 nM.
On to `Cc1cnc(Nc2cccc(O)c2)nc1Nc1cccc(O)c1` [Compound R926248, N2,N4-Bis(3-hydroxyphenyl)-5-methyl-2,4-pyrimidinediamine], for which the IC50 in [2] (setting [10]) is 760 nM; in [2] (setting [11]), 900 nM; in test [3], greater than 10000 nM; in [4], greater than 10000 nM; in test [5] (setting [12]), greater than 10000 nM.
With `Oc1cccc(Nc2ccnc(Nc3cccc(O)c3)n2)c1` [Compound R926249, N2,N4-Bis(3-hydroxyphenyl)-2,4-pyrimidinediamine], the IC50 in test [2] (setting [10]) is 250 nM; in test [2] (setting [11]), 500 nM; in test [3], greater than 10000 nM; in test [4] it was greater than 10000 nM; in test [5] (setting [12]), greater than 10000 nM.
In the case of `CC(=O)Oc1cccc(Nc2ncc(F)c(Nc3cccc(OC(C)=O)c3)n2)c1` [Compound R926387, N2,N4-Bis(3-acetyloxyphenyl)-5-fluoro-2,4-pyrimidinediamine], the IC50 was 700 nM in test [2] (setting [10]); 650 nM in [2] (setting [11]); greater than 10000 nM in test [3]; greater than 10000 nM in test [4]; greater than 10000 nM in [5] (setting [12]).
As for `Cc1cc(Nc2ncc(F)c(Nc3ccc4c(c3)NC(=O)C(F)(F)O4)n2)cc(Cl)c1O` [Compound R926971], the “inhibition” value in test [1] is “inhibit FcγRI-mediated degranulation”.
`CNC(=O)COc1cccc(Nc2ncc(F)c(Nc3ccc4c(n3)NC(=O)C(C)(C)O4)n2)c1` [Compound R940347, N4-[(2,2-Dimethyl-4H-5-pyrido[1,4]oxazin-3-one)-6-yl]-5-fluoro-N2-[3-(methylaminocarbonylmethyleneoxy)phenyl]-2,4-pyrimidinediamine]: the “inhibition” value in test [1] is recorded as “inhibit FcγRI-mediated degranulation”.
With `O=C1Nc2cc(Nc3ncc(F)c(Nc4ccc5c(c4)NC(=O)C(F)(F)O5)n3)ccc2OC1(F)F` [Compound R940352, N2,N4-[(2,2-Difluoro-4H-benzo[1,4]oxazin-3-one)-6-yl]-5-fluoro-2,4-pyrimidinediamine], in test [1], the “inhibition” value is listed as “inhibit FcγRI-mediated degranulation”.
